Results: US8686039B2, “Aqueous nanoemulsion composition containing conjugated linoleic acid” (Hwail Pharmaceutical Co., Ltd., priority 2009, dated 2014)

What was measured:
[1] = system: leptin secreted from adipocytes; test: Leptin secretion (ELISA); assay type: cell-based, mouse; conditions: 10 μg/mL, FIG. 8
Description: 3T3-L1 pre-adipocytes were cultured in Dulbecco's Modified Eagle's Medium (DMEM) containing 10% fetal bovine serum, 100 unit/mL penicillin and 10 μg/mL streptomycin at 37° C., 5% CO2 incubator. When 70 to 80% of cells were confluent, cells were pre-differentiated with DMEM containing dexamethazone, pioglitazone, IBMX (3-isobutyl-1-methylxanthin), insulin and FBS which are differentiation inducers, and then were differentiated with DMEM containing insulin, pioglitazone and FBS. After differentiation, lipids were matured with growth medium containing 10% FBS and insulin. Samples were dissolved in DMSO and treated in 10 μg/mL of the final concentration. An experiment was carried out to check whether the secretion amount of leptin, which is known as an appetite-related hormone, is regulated. The amount of leptin secreted from adipocytes was measured by enzyme-linked immunosorbent assay (ELISA) on media collected after treatment of adipocytes with sample. 100 μl of rabbit anti-mouse leptin IgG was aliquoted into an ELISA plate. […] Color development was elicited by the use of alkaline phosphatase conjugated substrate kit, and then absorbance at 490 nm was measured by an ELISA reader (SUNRISE, TECAN, Austria). […]

3T3-L1 pre-adipocytes [2] = test: Glycerol quantification (free glycerol reagent); assay type: cell-based; conditions: 10 μg/mL, medium after 24 hours treatment, FIG. 7
Description: (§1) 3T3-L1 pre-adipocytes were cultured in Dulbecco's Modified Eagle's Medium (DMEM) containing 10% fetal bovine serum, 100 unit/mL penicillin and 10 μg/mL streptomycin at 37° C., 5% CO2 incubator. When 70 to 80% of cells were confluent, cells were pre-differentiated with DMEM containing dexamethazone, pioglitazone, IBMX (3-isobutyl-1-methylxanthin), insulin and FBS which are differentiation inducers, and then were differentiated with DMEM containing insulin, pioglitazone and FBS. After differentiation, lipids were matured with growth medium containing 10% FBS and insulin. Samples were dissolved in DMSO and treated in 10 μg/mL of the final concentration.
Glycerol was quantified with an enzyme reaction method by using free glycerol reagent (Sigma, USA). 10 μl of medium, collected after treatment of cells with sample for 24 hours was added to 0.8 mL of Free glycerol reagent which was pre-warmed at 37° C., and then the reaction of the mixture was carried out in 37° C. water bath for 5 minutes. For quantification of glycerol, standard glycerol (25 μg/10 μl) was reacted in the same manner as above, and then absorbance at 540 nm was measured. The content of glycerol was calculated with the following formula.

3T3-L1 pre-adipocytes [3] = test: Lipolysis effect (Oil red O staining, neutral lipids); assay type: cell-based; conditions: 10 μg/mL, 8th day after differentiation, vs control group, FIGS. 4 and 5
Description: as §1
1×10^5 cells were dispensed into each well of 6-well plate and differentiated. On the 8th day after differentiation, media were removed, and cells were washed twice with ice-cold PBS. Cells were fixed with 10% formalin at room temperature for 1 hour, stained with 0.2 Oil red O (in isoprophanol) for 30 minutes, and then washed with distilled water. Isopropanol was added thereto to dissolve oil droplets, and then the content of neutral lipids was measured as absorbance at 490 nm. The results are represented in FIGS. 4 and 5.

3T3-L1 pre-adipocytes [4] = assay type: cell-based; conditions: mouse, 24 h, 10 μg/mL
Description: as §1
1×10^4 pre-adipocytes were dispensed into each well of 96-well plate, and each sample was treated. Then cells were incubated at 37° C., 5% CO2 incubator for 24 hours. After 24 hours, MTT (in phosphate buffered saline, final concentration was […]) was treated, and then cells were incubated for 4 hours. Formed formazan crystal was dissolved with DMSO:ethanol (1:1) and absorbance at 540 nm was measured by a microplate reader (SUNRISE, TECAN, Austria). Cell viability was determined by the ratio of absorbance value of sample treating group to absorbance value of control group, and the results are represented in FIG. 3. […] Thus, there is no statistically significant difference from that of the control group.

3T3-L1 pre-adipocytes [5] = test: Adipogenesis inhibitory effect (Oil red O staining); assay type: cell-based; conditions: Mus musculus, 10 μg/mL, treated with MDI medium 48 hours, 8th day after differentiation, FIG. 6, read-out: Content of neutral lipids decreased compared with the control group (adipogenesis inhibitory effect)
Description: as §1, with “concentration. 1×10^5 cells were dispensed into each well of 6-well plate. When 70% of cells were confluent, cells were treated with MDI medium (differentiation medium) and each sample at the same time, then incubated for 48 hours. On the 8th day after differentiation, the content of neutral lipids was measured with Oil red O staining. The results are represented in FIG. 6.” for “concentration.”

male Sprague-Dawley rats [6] = test: Serum cholesterol and neutral lipid in rats fed experimental diet; assay type: in vivo; conditions: HF diet + 2% test material, 5 weeks, FIG. 11
From the text: (§2) 28 male Sprague-Dawley rats (5 weeks, 145±5 g) were purchased from the Orient Company (Korea) as experimental animals. Rats were adapted with a lab-chow diet in pellet form for a week. Other obesity-induction groups except the normal group (NC) were fed high fat diet ad libitum for 5 weeks to induce obesity, and then rats were divided into four groups (7 rats per group) including the normal group and bred for 5 weeks as represented in FIG. 13.
(§3) AIN-76 diet (Teklad, USA) was used as a base of the experimental diet. Test materials were added at the level of 2% of high fat diet. In the CLA group and N-CLA group, 2% of CLA and N-CLA were added, respectively, while reducing corn oil. Experimental diet and water were supplied ad libitum. During the breeding period, the experimental diets were kept in a 4° C. refrigerator. Each of the animals was placed in an empty cage under a specific environmental condition, at 25±2° C. with a relative humidity of 60±5%, a lighting cycle of 12 hr light/12 hr dark. Body weight and the amount of diet intake were measured at constant time at 2-day intervals during the overall experimental period. Feed efficiency ratio (FER) was calculated by dividing the amount of body weight gain during the experimental period with the amount of diet intake during the same period, and the results are represented in Table 16.
(§4) After breeding, rats were fasted for 12 hours and then primarily anesthetized with ether. […] Liver was isolated, collected, rapidly frozen in liquid nitrogen and stored at −70° C. until sample analysis for measurement of enzyme activity and lipid quantification. […]
Quantification of total serum cholesterol was performed by using a test solution (Asanpharm Co., Korea) utilizing Allain et al. (1974)'s enzyme method. […] Thus, to quantify both CE and free cholesterol, CE was converted into fatty acid and free cholesterol by cholesterol esterase. […] H2O2 was mixed with peroxidase, phenol and 4-amino-antipyrine to emit red color, and then absorbance at 500 nm was measured. […]
The content of HDL-cholesterol was measured with kit reagent (Asanpharm Co., Korea). […]

male Sprague-Dawley rats [7] = test: Liver tissue lipid content in rats fed experimental diet; assay type: in vivo; conditions: HF diet + 2% test material, 5 weeks, vs HFD group, FIG. 12
From the text: as §2
as §3, with “During the breeding period, the experimental diets were kept in a 4° C. refrigerator. Each of the animals was placed in an empty cage under a specific environmental condition, at 25±2° C. with a relative humidity of 60±5%, a lighting cycle of 12 hr light/12 hr dark.” left out
as §4

male Sprague-Dawley rats [8] = test: Organ and white adipose tissue weight in rats fed experimental diet; assay type: in vivo; conditions: HF diet + 2% test material, 5 weeks
From the text: as §2, §3
After breeding, rats were fasted for 12 hours and then primarily anesthetized with ether. […] Collected blood was centrifuged at 3,000×g, 4° C. for 15 minutes to obtain serum, and then obtained serum was stored at −70° C. until sample analysis. Organ tissues (liver, heart, kidney, epididymal white adipose tissue and perirenal white adipose tissue) of the experimental animals were washed with PBS (phosphate buffered saline) several times, and then weighed after removing surface moisture. Liver was isolated, collected, rapidly frozen in liquid nitrogen and stored at −70° C. until sample analysis for measurement of enzyme activity and lipid quantification. The results of measuring the weight of epididymal white adipose tissue and perirenal white adipose tissue per unit body weight are represented in FIG. 10.

male Sprague-Dawley rats [9] = test: Body weight, diet intake and FER in high fat diet obesity-induced rats; assay type: in vivo; conditions: HF diet + 2% test material
From the text: as §2, §3

Row | Compound | Amount of leptin secretion decreased compared with the control group [1] [%] | Content of glycerol (secretion of glycerol, lipolysis) (3T3-L1 pre-adipocytes [2]) | Content of neutral lipids (lipolysis effect) (3T3-L1 pre-adipocytes [3]) | Cell viability (3T3-L1 pre-adipocytes [4]) [%] | inhibition at 10 µg/mL (3T3-L1 pre-adipocytes [5]) [%] | Content of serum neutral lipid (triglyceride, TG) (male Sprague-Dawley rats [6]) | Serum total cholesterol (TC) (male Sprague-Dawley rats [6]; vs HFD group) | Serum low density lipid (LDL) (male Sprague-Dawley rats [6]; vs HFD group, calculated by Friedewald method) | Content of neutral lipids in liver tissue (male Sprague-Dawley rats [7]) | Content of total cholesterol in liver tissue (male Sprague-Dawley rats [7]) | Organ Weight: Heart (male Sprague-Dawley rats [8]) [mg/g B.W.] | Organ Weight: Kidney (male Sprague-Dawley rats [8]) [mg/g B.W.] | Organ Weight: Liver (male Sprague-Dawley rats [8]) [mg/g B.W.] | Weight of epididymal white adipose tissue and perirenal white adipose tissue per unit body weight (male Sprague-Dawley rats [8]; vs HFD group, FIG. 10) | Body weight in the 5th week (male Sprague-Dawley rats [9]; 5th week, FIG. 9) | Body Weight Gain (male Sprague-Dawley rats [9]; 5 weeks) [g/day] | FER (food efficiency ratio) = body weight gain/food intake (male Sprague-Dawley rats [9]; 5 weeks) | Food Intake (male Sprague-Dawley rats [9]; 5 weeks) [g/day] | Body weight change during the experiment period (male Sprague-Dawley rats [9]; weeks 2 onward, vs HFD group, FIG. 9)
1 | CCCCCCCCCCC[C@@H](C[C@@H]1OC(=O)[C@H]1CCCCCC)OC(=O)[C@H](CC(C)C)NC=O [Orlistat] | 11.6 | 1.57 µg/mL | tendency of decreasing neutral lipids | 103 | 12.5 |  |  |  |  |  |  |  |  |  |  |  |  |  | 
2 | conjugated linoleic acid [CLA] | 8.3 | tendency of increasing the secretion of glycerol | tendency of decreasing neutral lipids |  |  | lower than HFD group with statistical significance | decreased compared with the HFD group with statistical significance | decreased compared with the HFD group with statistical significance | statistically significant decrease compared with the HFD group | statistically significant decrease compared with the HFD group | 2.43 ± 0.17 | 5.35 ± 0.24 | 44.69 ± 2.57 | slightly lighter than in the HFD group without statistical significance | not different from that of the HFD group with statistical significance | 2.89 ± 0.55 | 0.11 ± 0.02 | 28.18 ± 0.21 | lower than in the HFD group from the 2nd week to the 4th week
